Assay results: patent US20140024653A1, “COMPOSITIONS AND METHODS FOR TREATING CANCER USING PI3K INHIBITOR AND MEK INHIBITOR” (priority 2011, published 2014)
“Also recorded” adds a separate entry of the source. Read-outs that look alike come from different tables or passages of the source.

Assays:
[1] = test system: human colon carcinoma HCT 116
Protocol: Mice were over 18 g at start of treatment after an acclimatization time of at least 5 days. […] The mice were housed on a 12 hours light/dark cycle.
Human colon carcinoma HCT 116 cells were purchased at American Type Culture Collection [(ATCC), Rockville, Md., USA). The HCT 116 cells were cultured in Dulbecco's modified Eagle's medium (DMEM) (Invitrogen).
The animals required to begin a given experiment were pooled and implanted monolaterally on day 0. Treatments were administered on measurable tumors. The solid tumors were allowed to grow to the desired volume range (animals with tumors not in the desired range were excluded). The mice were then pooled and unselectively distributed to the various treatment and control groups. […] The dosages are expressed in mg/kg, based on the body weight at start of therapy. Mice were checked daily, and adverse clinical reactions noted. Each group of mice was weighed as a whole daily until the weight nadir was reached. Then, groups were weighed once to thrice weekly until the end of the experiment. Tumors were measured with a caliper 2 to 3 times weekly until final sacrifice for sampling time, tumor reached 2000 mm^3 or until the animal died (whichever comes first). Solid tumor volumes were estimated from two-dimensional tumor measurements and calculated according to the following equation:
Changes in tumor volume for each treated (T) and control (C) group were calculated for each tumor by subtracting the tumor volume on the day of first treatment (staging day) from the tumor volume on the specified observation day. The median ΔT is calculated for the treated group, and the median ΔC is calculated for the control group. Then the ratio ΔT/ΔC is calculated and expressed as a percentage. The dose is considered as therapeutically active when ΔT/ΔC is lower than 40% and very active when ΔT/ΔC is lower than 10%.
The percent of tumor regression is defined as the % of tumor volume decrease in the treated group at a specified observation day compared to its volume on the first day of treatment. At a specific time point and for each animal, % regression is calculated. The median % regression is then calculated for the group using the following equation:
Partial regression: Regressions are defined as partial if the tumor volume decreases to 50% of the tumor volume at the start of treatment.
Complete regression: The CR is achieved when tumor volume=0 mm^3 (CR is considered when tumor volume cannot be recorded).

MDAMB468 = test: SRB cell growth assay, 72 h; format: cell-based, human
Protocol: (§1) Cell growth and treatment were performed in 96-well microtitre plates CELLSTAR® (Greiner Bio-One, Germany). Cells harvested from exponential phase cultures by trypsinization were plated in 150 μl of media at optimal seeding densities. The optimal seeding densities for each cell line were determined to ensure exponential growth for the duration of the experiment. All cells growing without anticancer agents were sub-confluent by the end of the treatment as determined by visual inspection.
(§2) 150 μl of cells, after a 24-hour pre-growth period, were treated by mixing with 50 μl of the compound containing media (resulting in a final DMSO concentration of 0.1%). The cells were allowed to grow at 37° C. for 72 hours. In addition, all experiments contained a few plates with cells that were processed for measurement immediately after the 24 hours recovery period. These plates contained information about the cell number that existed before treatment, at time zero, and served to calculate the cytotoxicity.
(§3) After treatment, cells were precipitated by addition of 10% TCA. Prior to fixation, the media was aspirated as described. After an hour of incubation at 4° C., the plates were washed two times with 400 μl of deionized water. Cells were then stained with 100 μl of a 0.08% wt/v SRB. The plates were allowed to sit for at least 30 min. and washed six times with 1% acetic acid to remove unbound stain. The plates were left to dry at room temperature and bound SRB was solubilized with 100 μl of 10 mM Tris base. Measurement of optical density was performed at 560 nm on a Victor 2 plate reader (Perkin Elmer, Germany). The SRB values for A375 and H460 cell lines were near to saturation (2.5 OD units) due to the high protein content of these cells, but not cell confluence. The measurements for these cells were performed at 520 nm instead of 560 nm.
(§4) Using these measurements, cellular responses can be calculated for incomplete inhibition of cell growth (GI), complete inhibition of cell growth (T GI) and net loss of cells (LC) due to compound activity. […] This is the drug concentration causing a 50% reduction compared to the net protein increase in control cells during the drug incubation period. In other words, GI50 is IC50 corrected for time zero. Similar to IC90, calculated GI90 values are also reported for all compounds tested. TGI was calculated from Ti=Tz. […] It was calculated as 100×[(Ti−Tz)/Tz]=−50. However, due to 72 hours treatment, low cell seeding density was required and LC50 could rarely be achieved.

SKBR3 = test: SRB cell growth assay, 72 h; format: cell-based, human
[2] = test system: human primary colon tumors CR-LRB-013P; test: antitumor activity against subcutaneous CR-LRB-013P xenografts; format: in vivo; conditions: for tolerability: as single agents or used in combination
Protocol: The human primary colon carcinoma CR-LRB-013P tumor model was established by implanting (SC) small tumor fragments and was maintained in SCID female mice using serial passages.
Treatments were administered on measurable tumors. […] Mice were checked daily, and adverse clinical reactions noted.
Animal body weights included the tumor weight.
The primary efficacy end points are ΔT/ΔC, percent median regression, partial and complete regressions (PR and CR). Statistical analyses were performed on SAS system release 8.2 for SUN4 via Everstat V5 software and SAS 9.2 software. A probability less than 5% (p<0.05) was considered as significant.

DLD1 = test: SRB cell growth assay, 72 h; format: cell-based, human; conditions: single agent
[3] = test system: resting Peripheral Blood Mononuclear Cells, PBMC; test: SRB cell growth assay, 72 h, non-proliferating cells; format: cell-based
Protocol: Cell lines were selected to represent 17 different indications with many different genetic variations and biochemical characteristics. In addition, the study included resting Peripheral Blood Mononuclear Cells, PBMC, as a model for non-proliferating cells.
as §1, with “inspection. […]” for “inspection.”
After treatment, cells were precipitated by addition of 10% TCA. […] Measurement of optical density was performed at 560 nm on a Victor 2 plate reader (Perkin Elmer, Germany). […]
Using these measurements, cellular responses can be calculated for incomplete inhibition of cell growth (GI), complete inhibition of cell growth (T GI) and net loss of cells (LC) due to compound activity. […] Similar to IC90, calculated GI90 values are also reported for all compounds tested. TGI was calculated from Ti=Tz. […] It was calculated as 100×[(Ti−Tz)/Tz]=−50. […]

PANC1 = test: SRB cell growth assay, 72 h; format: cell-based, human; conditions: single agent
CASKI = test: SRB cell growth assay, 72 h; format: cell-based, human; conditions: single agent
A549 = test: SRB cell growth assay, 72 h; format: cell-based, human; conditions: for GI50: Homo sapiens
DU145 = test: SRB cell growth assay, 72 h; format: cell-based, human; conditions: single agent
COLO678 = test: SRB cell growth assay, 72 h; format: cell-based; conditions: Homo sapiens
Protocol: as §1, §2, §3, §4

A673 = test: SRB cell growth assay, 72 h; format: cell-based, human; conditions: single agent; for activity (cell growth inhibition): up to 50 μM
[4] = test system: panel of 81 cancer cell lines; test: SRB cell growth assay, 72 h, cell line panel; format: cell-based, human
[5] = test system: human colon carcinoma HCT 116; test: HCT116 tumor growth in fluorescence molecular tomography study; format: in vivo, SCID mice; conditions: NS
BT20 = test: SRB cell growth assay, 72 h; format: cell-based, human; conditions: single agent
[6] = study 1, (1) 5 mg/kg PO daily days 11-18
[7] = study 2, (1) 10 mg/kg PO daily days 11-18 (day 17: 20 mg/kg)
[8] = study 2, (1) 20 mg/kg PO daily days 11-18
[9] = study 3, (1) 10 mg/kg PO daily days 11-20
[10] = study 3, (1) 20 mg/kg PO daily days 11-20
[11] = study 4, (1) 10 mg/kg PO daily days 11-20
[12] = study 4, (1) 20 mg/kg PO daily days 11-20
[13] = (1) 20 mg/kg PO daily days 33-50
[14] = study 1, (2b) 30 mg/kg PO daily days 11-18
[15] = study 2, (2b) 20 mg/kg PO daily days 11-18
[16] = study 4, (2b) 20 mg/kg PO daily days 11-20
[17] = (2b) 20 mg/kg PO daily days 33-50

## O=C(NC[C@H](O)CO)c1ccncc1Nc1ccc(I)cc1F [Compound (1), N—((S)-2,3-dihydroxypropyl)-3-(2-fluoro-4-iodo-phenylamino)isonicotinamide]
[1]; [6]
  Average body weight change in % per mouse at nadir: −3.4 (14) %
  Drug death: 0/7
  Regressions Complete: 0/7
  Regressions Partial: 0/7
[1]; study 1, (1) 5 mg/kg PO daily days 11-18, 5 mg/kg
  Median ΔT/ΔC in % day 18: 70%
[1]; study 1, as single agents or used in combination
  tolerability: well-tolerated, inducing minimal BWL
[1]; [7]
  Average body weight change in % per mouse at nadir: −2.2 (18) %
  Drug death: 0/7
  Median ΔT/ΔC in % day 18: 20%
  Regressions Complete: 0/7
  Regressions Partial: 0/7
[1]; [8]
  Average body weight change in % per mouse at nadir: −1.1 (15) %
  Drug death: 0/7
  Median ΔT/ΔC in % day 18: 22%
  Regressions Complete: 0/7
  Regressions Partial: 0/7
[1]; study 2, as single agents
  tolerability: well-tolerated, inducing minimal BWL
[1]; [9]
  Average body weight change in % per mouse at nadir: −4.9 (20) %
  Drug death: 0/10
  Regressions Complete: 0/10
  Regressions Partial: 0/10
[1]; study 3, (1) 10 mg/kg PO daily days 11-20, 10 mg/kg
  Median ΔT/ΔC in % day 20: 43%
[1]; [10]
  Average body weight change in % per mouse at nadir: −3.6 (19) %
  Drug death: 0/10
  Median ΔT/ΔC in % day 20: 34%
  Regressions Complete: 0/10
  Regressions Partial: 0/10
[1]; study 3, as single agents
  tolerability: well-tolerated, inducing minimal BWL
[1]; [11]
  Average body weight change in % per mouse at nadir: −2.3 (13) %
  Drug death: 0/10
  Regressions Complete: 0/10
  Regressions Partial: 0/10
[1]; study 4, (1) 10 mg/kg PO daily days 11-20, 10 mg/kg
  Median ΔT/ΔC in % day 20: 53%
[1]; [12]
  Average body weight change in % per mouse at nadir: −4.1 (18) %
  Drug death: 0/10
  Regressions Complete: 0/10
  Regressions Partial: 0/10
[1]; study 4, (1) 20 mg/kg PO daily days 11-20, 20 mg/kg
  Median ΔT/ΔC in % day 20: 41%
[1]; study 4, as single agents
  tolerability: well-tolerated, inducing minimal BWL
MDAMB468; single agent, up to 50 μM
  activity (cell growth inhibition): minimal activity
SKBR3; single agent
  sensitivity: non-sensitive
  z-score MSC6369: 0.69
[2]; [13]
  Average body weight change in % per mouse at nadir: −4.5 (50) %
  Drug death: 0/7
  Median ΔT/ΔC in % day 50: 30%
  Regressions Complete: 0/7
  Regressions Partial: 0/7
[2]
  tolerability: tolerated, inducing some BWL but not reaching toxicity
DLD1
  z-score MSC6369: 0.19
[3]
  activity in resting (arrested) PBMC: no activity
PANC1
  z-score MSC6369: 3.00
PANC1; up to 50 μM
  activity (cell growth inhibition): minimal activity
CASKI
  z-score MSC6369: 1.55
A549
  GI50: 300 nM
A549; single agent
  z-score MSC6369: −0.11
DU145
  z-score MSC6369: 0.73
COLO678; COLO-678, most sensitive cell lines
  IC50: 4.8 to 8 nM
A673
  z-score MSC6369: 3.00
  activity (cell growth inhibition): minimal activity; also recorded: non-sensitive
[4]; 82 cell lines
  cell lines sensitive below 100 nM: 27 of 82
[4]; Homo sapiens, median of cell lines tested, read-out: median sensitivity
  IC50: 490 nM
[4]; Homo sapiens, sensitive cell lines of the panel, read-out: Efficacy in sensitive cell lines
  IC50: 4 to 5 nM
[4]; panel
  difference between the most and least sensitive cell lines: 10.000 fold
[5]; (1) 10 mg/kg oral daily day 11 to day 17
  ΔT/ΔC at the end of study: 40%
BT20
  z-score MSC6369: 0.02

## CCn1c(=O)c(-c2ccn[nH]2)cc2c(C)nc(N)nc21 [Compound (2b), 2-amino-8-ethyl-4-methyl-6-(1H-pyrazol-5-yl)pyrido[2,3-d]pyrimidin-7(8H)-one]
[1]; [14]
  Average body weight change in % per mouse at nadir: −6.7 (18) %
  Drug death: 0/7
  Median ΔT/ΔC in % day 18: 77%
  Regressions Complete: 0/7
  Regressions Partial: 1/7
[1]; [15]
  Average body weight change in % per mouse at nadir: −3.7 (15) %
  Drug death: 0/7
  Median ΔT/ΔC in % day 18: 71%
  Regressions Complete: 0/7
  Regressions Partial: 0/7
[1]; study 2, as single agents
  tolerability: well-tolerated, inducing minimal BWL
[1]; [16]
  Average body weight change in % per mouse at nadir: −4.8 (20) %
  Drug death: 0/10
  Regressions Complete: 0/10
  Regressions Partial: 0/10
[1]; study 4, as single agents
  tolerability: well-tolerated, inducing minimal BWL
MDAMB468; Homo sapiens, MDA-MB-468, most sensitive, z-score <−1.5
  GI50: < 500 nM
SKBR3; Homo sapiens, SK-BR-3, most sensitive, z-score <−1.5
  GI50: < 500 nM
SKBR3; single agent
  sensitivity: very sensitive
  z-score MSC0765: −2.18
[2]; [17]
  Average body weight change in % per mouse at nadir: −5.2 (50) %
  Drug death: 0/7
  Regressions Complete: 0/7
  Regressions Partial: 0/7
[2]
  tolerability: tolerated, inducing some BWL but not reaching toxicity
DLD1
  z-score MSC0765: 0.81
[3]
  activity in resting (arrested) PBMC: no activity
PANC1
  z-score MSC0765: 1.16
CASKI
  z-score MSC0765: −0.23
A549
  GI50: 1150 nM
A549; single agent
  z-score MSC0765: −0.20
DU145
  z-score MSC0765: −0.05
COLO678; COLO-678, non-sensitive, z score >1.5
  GI50: > 4000 nM
A673
  z-score MSC0765: 0.96
  activity (cell growth inhibition): non-sensitive
[4]; Homo sapiens, all 81 cell lines, log 10-transformed data
  GI50: 1300 to 1400 nM
[4]; panel
  differences in activity between sensitive and insensitive cell lines: 10-20 fold
[5]; (2b) 20 mg/kg oral daily day 11 to day 17
  ΔT/ΔC at the end of study: 80%
BT20
  z-score MSC0765: 0.32
